Read-outs that look alike come from different tables or passages of the source.
Legend:
[1] = test system: p53 activation (MDM2, p53, p21, cleaved PARP, cleaved caspase-3) in SJSA-1 tumors; conditions: mice, single oral dose 100 mg/kg
[2] = test system: SJSA-1 osteosarcoma tumor xenograft; conditions: for antitumor activity in SJSA-1 xenograft model: mice; for antitumor efficacy (regression): last line of Table 6, SJSA-1 xenograft model in mice; for weight loss of mice during the experiment: SJSA-1 xenograft experiment, 30 or 100 mg/kg daily for 14 days
SJSA-1 cancer cell line [3] = conditions: cited from earlier work
[4] = test system: SJSA-1 osteosarcoma tumor xenograft; conditions: mice; cited from earlier work
MDM2 = MDM2 (Homo sapiens, UniProt Q00987)
SJSA-1 cancer cell line [5] = assay: cells; conditions: Homo sapiens, SJSA-1, read-out: SJSA-1 IC50, cell growth inhibition
[6] = cited from earlier work
[7] = test system: RS4;11 acute lymphoblastic leukemia xenograft; conditions: for antitumor activity in RS4;11 xenograft model: mice
[8] = oral gavage 100 mg/kg daily for 14 days
[9] = oral 30 mg/kg daily for 14 days

Chain of MDM2 (Q00987 whole entry): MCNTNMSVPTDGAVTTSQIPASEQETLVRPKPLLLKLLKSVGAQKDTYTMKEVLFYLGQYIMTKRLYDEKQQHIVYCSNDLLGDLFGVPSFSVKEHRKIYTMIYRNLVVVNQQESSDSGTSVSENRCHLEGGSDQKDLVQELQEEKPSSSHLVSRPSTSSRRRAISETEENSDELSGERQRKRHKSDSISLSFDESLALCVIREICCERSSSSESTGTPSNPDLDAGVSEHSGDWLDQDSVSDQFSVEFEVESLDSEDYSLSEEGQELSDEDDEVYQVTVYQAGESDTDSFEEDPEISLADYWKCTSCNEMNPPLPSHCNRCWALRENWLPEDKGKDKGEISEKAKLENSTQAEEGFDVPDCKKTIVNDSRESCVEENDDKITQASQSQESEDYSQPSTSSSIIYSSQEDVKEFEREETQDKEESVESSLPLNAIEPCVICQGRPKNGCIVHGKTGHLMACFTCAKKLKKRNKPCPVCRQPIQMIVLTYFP

SMILES: CC(C)(C)C[C@@H]1N[C@@H](C(=O)N[C@H]2CC[C@H](O)CC2)[C@H](c2cccc(Cl)c2F)[C@]12C(=O)Nc1cc(Cl)ccc12 [Compound 2, reference compound]
- apoptosis induction (cleavage of PARP and caspase-3) in SJSA-1 xenograft tumor tissue [1]: induce strong apoptosis
- p53 activation (MDM2, p53, p21 levels) in SJSA-1 xenograft tumor tissue [1]: robust activation of p53
- antitumor activity in SJSA-1 xenograft model [2, 8]: complete tumor regression
- purity retained (in solutions after 7 days (slow isomerization)): 93–96%

SMILES: O=C(N[C@H]1CC[C@H](O)CC1)[C@@H]1NC2(CCCCC2)[C@@]2(C(=O)Nc3cc(Cl)ccc32)[C@H]1c1cccc(Cl)c1F [Compound 6, (3′R,4′S,5′R)-6″-Chloro-4′-(3-chloro-2-fluorophenyl)-N-((1r,4R)-4-hydroxycyclohexyl)-2″-oxodispiro[cyclohexane-1,2′-pyrrolidine-3′,3″-indoline]-5′-carboxamide]
- IC50 (SJSA-1 cancer cell line [3]; read-out: SJSA-1 cell growth inhibition IC50): 190 nM
- decomposition (after 2 days in cell culture media, UPLC): < 1%
- antitumor activity in SJSA-1 xenograft model [4]: strong tumor growth inhibition but not complete tumor regression

SMILES: CNC(=O)[C@@H]1NC2(CCNCC2)[C@@]2(C(=O)Nc3cc(Cl)ccc32)[C@H]1c1cccc(Cl)c1F [Compound 8, (3R,4′S,5′R)-6-Chloro-4′-(3-chloro-2-fluorophenyl)-N-methyl-2-oxodispiro[indoline-3,3′-pyrrolidine-2′,4″-piperidine]-5′-carboxamide]
- no appreciable binding to MDM2 up to (MDM2): > 2 µM

SMILES: CN1[C@@H](c2nc(CC(=O)O)cs2)[C@H](c2cccc(Cl)c2F)[C@]2(C(=O)Nc3cc(Cl)ccc32)C12CCCCC2 [Compound 27, 2-(2-((3′R,4′S,5′R)-6″-Chloro-4′-(3-chloro-2-fluorophenyl)-1′-methyl-2″-oxodispiro[cyclohexane-1,2′-pyrrolidine-3′,3″-indolin]-5′-yl)thiazol-4-yl)acetic Acid]
- IC50 (SJSA-1 cancer cell line [5]): > 2000 nM

SMILES: O=C(O)[C@@H]1NC2(CCCCC2)[C@@]2(C(=O)Nc3cc(Cl)ccc32)[C@H]1c1cccc(Cl)c1F [Compound 29]
- IC50 (SJSA-1 cancer cell line [3]; read-out: SJSA-1 IC50, cell growth inhibition): > 10000 nM

SMILES: O=C(N[C@H]1CC[C@H](C(=O)O)CC1)[C@@H]1NC2(CCCCC2)[C@@]2(C(=O)Nc3cc(Cl)ccc32)[C@H]1c1cccc(Cl)c1F [Compound 33, (1R,4r)-4-((3′R,4′S,5′R)-6″-Chloro-4′-(3-chloro-2-fluorophenyl)-2″-oxodispiro[cyclohexane-1,2′-pyrrolidine-3′,3″-indoline]-5′-carboxamido)cyclohexane-1-carboxylic Acid]
- antitumor activity in SJSA-1 xenograft model [2, 8]: effectively retard tumor growth, it failed to achieve tumor regression
- stability in solution (CH3CN/H2O, MeOH/H2O or cell culture media, 2 days): can decompose in solution

SMILES: O=C(O)c1ccc(NC(=O)[C@@H]2NC3(CCCCC3)[C@@]3(C(=O)Nc4cc(Cl)ccc43)[C@H]2c2cccc(Cl)c2F)cc1 [Compound 39]
- stability in solution [6]: very stable in solution
- antitumor activity in SJSA-1 xenograft model [4]: partial tumor regression

SMILES: CC1(C)CCC2(CC1)N[C@@H](C(=O)Nc1ccc(C(=O)O)cc1)[C@H](c1cccc(Cl)c1F)[C@]21C(=O)Nc2cc(Cl)ccc21 [Compound 54, 4-((3′R,4′S,5′R)-6″-Chloro-4′-(3-chloro-2-fluorophenyl)-4,4-dimethyl-2″-oxodispiro[cyclo-hexane-1,2'-pyrrolidine-3′,3″-indoline]-5'-carboxamido)benzoic Acid]
- antitumor efficacy (regression) [2]: 87% regression
- antitumor activity in SJSA-1 xenograft model ([2]; oral gavage 50 mg/kg daily for 14 days): effectively retards tumor growth

SMILES: O=C(NC12CCC(C(=O)O)(CC1)CC2)[C@@H]1NC2(CCCCC2)[C@@]2(C(=O)Nc3cc(Cl)ccc32)[C@H]1c1cccc(Cl)c1F [Compound 56, 4-((3′R,4′S,5′R)-6″-Chloro-4′-(3-chloro-2-fluorophenyl)-2″-oxodispiro[cyclohexane-1,2′-pyrrolidine-3′,3″-indoline]-5′-carboxamido)bicyclo[2.2.2]octane-1-carboxylic Acid]
- apoptosis induction (cleavage of PARP and caspase-3) in SJSA-1 xenograft tumor tissue [1]: no cleavage of PARP and caspase-3
- weight loss of mice during the experiment [2]: no or minimal weight loss
- antitumor efficacy (regression) [2]: no regression

SMILES: O=C(NC12CCC(C(=O)O)(CC1)CC2)[C@@H]1NC2(CCC(F)(F)CC2)[C@@]2(C(=O)Nc3cc(Cl)ccc32)[C@H]1c1cccc(Cl)c1F [Compound 57, 4-((3′R,4′S,5′R)-6″-Chloro-4′-(3-chloro-2-fluorophenyl)-4,4-difluoro-2″-oxodispiro[cyclohexane-1,2′-pyrrolidine-3′,3″-indoline]-5′-carboxamido)bicyclo[2.2.2]octane-1-carboxylic Acid]
- apoptosis induction (cleavage of PARP and caspase-3) in SJSA-1 xenograft tumor tissue [1]: modest effect on activation of p53 and induction of cleavage of PARP and caspase-3

SMILES: CS(=O)(=O)NC(=O)C12CCC(NC(=O)[C@@H]3NC4(CCCCC4)[C@@]4(C(=O)Nc5cc(Cl)ccc54)[C@H]3c3cccc(Cl)c3F)(CC1)CC2 [Compound 58, (3′R,4′S,5′R)-6″-Chloro-4′-(3-chloro-2-fluorophenyl)-N-(4-((methylsulfonyl)carbamoyl)-bicyclo[2.2.2]octan-1-yl)-2″-oxodispiro[cyclohexane-1,2′-pyrrolidine-3′,3″-indoline]-5′-carboxamide]
- apoptosis induction (cleavage of PARP and caspase-3) in SJSA-1 xenograft tumor tissue [1]: modest effect on activation of p53 and induction of cleavage of PARP and caspase-3

SMILES: CN1[C@@H](C(=O)NC23CCC(C(=O)O)(CC2)CC3)[C@H](c2cccc(Cl)c2F)[C@]2(C(=O)Nc3cc(Cl)ccc32)C12CCCCC2 [Compound 59, 4-((3′R,4′S,5′R)-6″-Chloro-4′-(3-chloro-2-fluorophenyl)-1′-methyl-2″-oxodispiro[cyclohexane-1,2′-pyrrolidine-3′,3″-indoline]-5′-carboxamido)bicyclo[2.2.2]octane-1-carboxylic Acid]
- persistence of p53 activation in SJSA-1 xenograft tumor tissue [1]: 24 h
- weight loss of mice during the experiment [2]: no or minimal weight loss
- antitumor activity in SJSA-1 xenograft model [2, 9]: effectively inhibits tumor growth
- antitumor activity in SJSA-1 xenograft model [2, 8]: complete and long-lasting tumor regression

SMILES: CCN1[C@@H](C(=O)NC23CCC(C(=O)O)(CC2)CC3)[C@H](c2cccc(Cl)c2F)[C@]2(C(=O)Nc3cc(Cl)ccc32)C12CCCCC2 [Compound 60, 4-((3′R,4′S,5′R)-6″-Chloro-4′-(3-chloro-2-fluorophenyl)-1′-ethyl-2″-oxodispiro[cyclohexane-1,2′-pyrrolidine-3′,3″-indoline]-5′-carboxamido)bicyclo[2.2.2]octane-1-carboxylic Acid]
- persistence of p53 activation in SJSA-1 xenograft tumor tissue [1]: 24 h
- weight loss of mice during the experiment [2]: no or minimal weight loss
- antitumor activity in SJSA-1 xenograft model [2, 9]: effectively inhibits tumor growth
- antitumor activity in SJSA-1 xenograft model [2, 8]: complete and long-lasting tumor regression
- chemical stability in solutions (1:1 CH3CN/H2O, 1:1 MeOH/H2O, cell culture media, 7 days): very stable in solutions for a period of 7 days
- antitumor activity in RS4;11 xenograft model ([7]; 200 mg/kg weekly dosing for 3 weeks): partial tumor regression
- tolerability in RS4;11 xenograft experiment ([7]; mice, 50, 75, 100 mg/kg daily or 200 mg/kg weekly): well tolerated at all doses and schedules
- antitumor activity in RS4;11 xenograft model ([7]; oral 100 mg/kg daily for 14 days): partial tumor regression

From article PMC5394527 (Journal of Medicinal Chemistry, 2017)
